Data published in patent US12252697B2 (priority 2019, dated 2025).
Entries after “also recorded” stand apart in the source; their conditions may differ.

Experiments:
[1] = test system: Arabidopsis root growth; assay: root growth assay, transformed Arabidopsis; type: in vivo, Arabidopsis thaliana; conditions: for root growth tolerance compared with null vector or wild type gene: Arabidopsis transformed with mutant S. orientale IAA2Δ27; for root growth response: Arabidopsis transformed with the null vector
Procedure: (§1) All root assays were performed on 120 mm square petri dishes with half MS and 1% phytoagar. […] For the mustard root assay, ten seedlings (3 days after germination) of F5 RILs of each phenotype were transferred to an auxin treated or control plate, the root tip of each plant was marked and root growth was evaluated seven days after treatment. For Arabidopsis, sterilized seeds were planted directly on the treated petri dish and incubated at 4° C. for seed […] and moved to the growth chamber after 3 days. T3 homozygous plants of 35::SoIAA2WT, 35::SoIAA2Δ27, the T-DNA insertion line on AtIAA2 and the empty T-DNA from PFGC5941 plasmid as control were used in this study. Twelve plants per construct ware used in total and roots were measured three weeks after the plates were moved to the growth conditions. For all root assays, seeds were gas sterilized for 6 hours using bleach and hydrochloric acid. The plants were grown under controlled conditions of 180 uMol m^−2 light intensity, relative humidity of 60%, 16 hours of day and day/night temperatures of 22/18° C.

[2] = test system: TIR1/auxin/IAA complex; assay: surface plasmon resonance (SPR) binding assay; parameters: species or system Sisymbrium orientale; conditions: mutant IAA2Δ27 peptide vs IAA2 wild-type; compound 50 μM
Description: In short, this assay measures the binding of auxin and IAA to the receptor protein TIR1 and their unbinding.
Surface plasmon resonance (SPR) experiments were done according to published protocols. TIR1/AFBS was expressed in insect cell culture using a recombinant baculovirus. The construct contained sequences for three affinity tags, namely 6 His, maltose-binding protein (MBP) and FLAG. Initial purification using the His tag was followed by clean-up using FLAG chromatography, the purified protein was used for SPR assays by passing it over a streptavidin chip loaded with biotinylated IAA2/IAA7 degron peptides.
The SPR buffer was Hepes-buffered saline with 10 mM Hepes, 3 mM EDTA, 150 mM NaCl and 0.05% Tween 20. Compounds to be tested were premixed with the protein to a final 50 μM concentration. Binding experiments were run at a flow rate of 30 μl min^−1 using 2.0 min of injection time and 4.0 min of dissociation time. Data from a control channel (mIAA7) and from a buffer+DMSO-only run were subtracted from each sensogram following the standard double reference subtraction protocol.

[3] = test system: IAA2 expression; assay: IAA2 expression by Q-PCR after auxin treatment of seedlings; type: in vivo, Sisymbrium orientale; conditions: for increase of IAA2 expression compared to untreated plants and DMSO control: 2 hr exposure
Procedure: To study IAA2 expression under auxin treatments sterilized seeds from F5 RILs for each phenotype were planted in half MS and grown until expanded cotyledon stage (size was about 2 cm from root to cotyledon tips). […] After exposure plants were collected into 2 ml centrifuge tubes and frozen in liquid nitrogen. RNA was extracted using Direct-zol RNA Microprep from Zymo research, DNAase treatment was done using DNaseI from Invitogen—ThermoFisher and cDNA was generated using iScript™ according to each manufacture protocol. Q-PCR (CFX Connect™ Real-Time PCR Detection System thermal cycler, BioRad, Hercules, Calif.) was used to determine IAA2 expression. The qPCR reaction contained 12.5 μl of SYBR Green (PerfeCTa SYBR Green FastMix), 1 μl each of forward and reverse primers (5 μM), and 1 uL of cDNA for a final reaction volume of […] parameters were 50° C. for 2 min, 95° C. for 10 min, and 40 cycles of 95° C. for 30 s and 60° C. for 1 min. Relative expression quantification was calculated by Expression=2^ΔCt, where ΔCT=CT(average of Actin2 and Cyclophilin)−CT(IAA2). Each biological sample was run in two technical replicates.

[4] = test system: S. orientale RILs root growth; assay: root growth assay, S. orientale inbred lines; type: in vivo, Sisymbrium orientale; conditions: S. orientale RILs homozygous for IAA2Δ27 vs IAA2 wild-type allele
Procedure: as §1

[5] = test system: Sisymbrium orientale PB-R1 plants; conditions: PB-R1 plants vs Roseworthy S plants; cited from earlier work
[6] = test system: S. orientale F3 plants (cross B); assay: progeny test segregation analysis, visual injury after 2,4-D spray; type: in vivo, Sisymbrium orientale; conditions: 200 gai ha^-1 2,4-D, 28 days after treatment
Procedure: A progeny test segregation analysis was performed on 219 F3 plants derived from self-pollination of a heterozygous F2 individual from cross B, identified via progeny test due to segregation of 2,4-D resistance in the F3 progeny. Plants were sprayed with 200 gai ha^−1 2,4-D at the 5 true leaf stage. Damage percentage was evaluated at 28 days after treatment. Leaf tissue was harvested and genomic DNA was extracted by CTAB. A KASP assay was performed with primers and methods as described above. To further test the co-segregation between the resistant phenotype and IAA2Δ27, nine each of R and S RILs from cross A and three each of R and S RILs from cross B were genotyped using the KASP assay. Two individuals were genotyped from each RIL.

[7] = test system: Arabidopsis thaliana (Col-0); assay: 2,4-D spray of transformed Arabidopsis; type: in vivo; conditions: 200 g a.i. ha^-1
Procedure: Arabidopsis transformation was performed based on established protocols with modifications. IAA2 alleles were amplified by PCR from cDNA generated from RNA extracts of homozygous R and S F5 lines (cross A). RNA was extracted using Direct-zol RNA Miniprep Plus Kit (Zymo). cDNA synthesis was performed using oligo(dT)20 primers from SuperScript™ II Reverse Transcriptase (Invitrogen). Wild-type and mutant alleles were amplified by PCR using PrimeSTAR HS Premix (Takara), using primers linked with restriction enzyme sites for cloning. Purified PCR amplicons were ligated into the pGEM-T Easy Vector (Promega), transformed into E. coli, sequenced by Sanger sequencing, and digested using the restriction sites AscI and BamHI (New England BioLabs). The digested product was then ligated into the binary vector pFGC5941 and cloned into Agrobacterium tumefaciens (strain GV3101). For plant transformation, Agrobacterium 400 mL liquid cultures were incubated at 28 C overnight and after centrifugation, resuspended in a 300 mL transformation solution (5% sucrose and 0.02% Silwet L-77). Each allele of IAA2 was transformed into Arabidopsis thaliana (Col-0) by floral dip and grown to seed production.
For transformant selection, 40 mg of transformed seeds for each IAA2 allele were cleaned with bleach solution (12.5%) and plated at half MS selective media with Cefotaxime (200 mg/L) and glufosinate-ammonium (7.5 mg/L). After two weeks, positive transformants were transferred to a second selective plate with half MS, Cefotaxime (100 mg/L) and glufosinate-ammonium (5 mg/L). After selection, potential transformants were transferred to soil and grown until seed production. For T2 selection, 36 seeds were cleaned and grown on half MS and glufosinate-ammonium (5 mg/L) media. T3 homozygous plants containing just one copy of the T-DNA vector were selected and IAA2 expression was analyzed using the same primers from mustard expression assay (see below), AtCyclophilin and AtActin2 were used as normalization genes. […]

[8] = test system: S. orientale populations from Southern Australia; assay: single-rate 2,4-D resistance screen of S. orientale populations; type: in vivo, Sisymbrium orientale; conditions: eight populations; 250 g ha^-1 2,4-D at 4-leaf stage; leaf curl 48 h, confirmed 21 days
Procedure: The presence of IAA2Δ27 in other 2,4-D resistant populations of S. orientale was also investigated. Seeds of S. orientale populations were germinated by sowing directly onto the soil surface of seedling trays containing standard potting mix. Once emerged, seedlings were transplanted into 9.5×8.5×9.5 cm punnet pots and grown outdoors at the Waite Campus, University of Adelaide, Australia. At the 4-leaf stage, plants were treated with a single rate of 250 g. a. ha^−1 2,4-D (2,4-D amine 650, FMC) to screen for resistance. Herbicide was applied using a laboratory moving boom pesticide applicator and applied at an equivalent of 109 L ha−1 of water at a pressure of 250 kPa and a speed of 1 m s−1 using Tee-Jet 001 nozzles (Tee-Jet 8001E; Spraying Systems Co., Wheaton, Ill.). Leaf curl was assessed 48 h after treatment, with any plants showing signs of leaf curl considered susceptible and tissue harvested, while the remaining plants were considered resistant and allowed to grow for a further 21 days to confirm resistance and tissue subsequently harvested.

[9] = Arabidopsis transformed with wild type S. orientale IAA2

With COc1c(Cl)ccc(Cl)c1C(=O)O [Dicamba] the “root growth tolerance compared with null vector or wild type gene” value [1] was “higher tolerance; also recorded: confers resistance”, the root growth response [1] was “susceptible to inhibition” and the “root growth response compared with the null vector” value [1, 9] was “slightly more tolerant”. For the same compound, the “association of the herbicide/IAA/TIR1 complex (Ka)” value [2] was “slower association” and the “dissociation of the herbicide/IAA/TIR1 complex (Kd)” value [2] was “more rapid dissociation; also recorded: faster”.
With O=C(O)Cc1c[nH]c2ccccc12 [IAA, indoleacetic acid] the “increase of IAA2 expression compared to untreated plants and DMSO control” value (shortened to “increase of IAA2 expression”) ([3]; R seedlings) was 9.5 fold, the “increase of IAA2 expression” value ([3]; S seedlings) was 7 fold and the “relative expression (RE) of IAA2” value ([3]; treated resistant plants) was 0.62. For the same compound, the “relative expression (RE) of IAA2” value ([3]; treated susceptible plants) was 1, the “root growth tolerance compared with null vector or wild type gene” value [1] was “higher tolerance; also recorded: confers resistance” and the “association of the herbicide/IAA/TIR1 complex (Ka)” value [2] was “slower association”. The “dissociation of the herbicide/IAA/TIR1 complex (Kd)” value [2] was “more rapid dissociation; also recorded: faster”.
In the case of O=C(O)c1nc(Cl)ccc1Cl [Clopyralid], the “root growth tolerance compared with null vector or wild type gene” value [1] is reported as “higher tolerance; also recorded: confers resistance”.
For Cc1cc(Cl)ccc1OCC(=O)O [MCPA], the root growth tolerance [4] is given as “higher tolerance; also recorded: confers resistance” and the “fold more resistant compared to S plants” value [5] is given as 20 fold.
With COc1c(Cl)ccc(-c2nc(C(=O)OCc3ccccc3)c(Cl)c(N)c2F)c1F [Rinskor (florpyrauxifen-benzyl), florpyrauxifen-benzyl] the root growth tolerance [4] was “confers resistance” and the root growth tolerance ([4]; listed as fluorpyrauxifen-benzyl) was “higher tolerance”.
O=C(O)COc1ccc(Cl)cc1Cl [2,4-D, 2,4-dichlorophenoxyacetic acid] showed an average injury ([6]; heterozygous plants) of 24%, an injury ([6]; homozygous resistant plants) of 12% and a visual injury ([6]; sensitive plants homozygous for IAA2WT) of 70%. For the same compound, the “increase of IAA2 expression” value ([3]; R seedlings) was 2.5 fold, the “effect of treatment on IAA2 expression (FIG. 7)” value ([3]; S) was “increases IAA2 expression” and the “increase of IAA2 expression” value ([3]; S seedlings) was 4 fold. The “relative expression (RE) of IAA2” value ([3]; treated resistant plants) was 0.16, the “relative expression (RE) of IAA2” value ([3]; treated susceptible plants) was 0.55 and the “response to herbicide treatment” value ([7]; Arabidopsis transformed with S. orientale IAA2Δ27) was “resistant”. For the same compound, the “response to herbicide treatment” value [7, 9] was “susceptible; also recorded: sensitive”, the “response to herbicide treatment” value ([7]; wild type Arabidopsis) was “susceptible; also recorded: sensitive” and the “root growth tolerance compared with null vector or wild type gene” value [1] was “higher tolerance; also recorded: confers resistance”. For the same compound, the root growth response [1] was “susceptible to inhibition”, the “association of the herbicide/IAA/TIR1 complex (Ka)” value [2] was “slower association” and the “dissociation of the herbicide/IAA/TIR1 complex (Kd)” value [2] was “more rapid dissociation; also recorded: faster”. The “populations identified as resistant” value [8] was “four identified as resistant” and the “fold more resistant compared to S plants” value [5] was 22 fold.
